Reference: patent US7514432B2, “Compounds and methods of treating cell proliferative diseases, retinopathies and arthritis” (Exonhit Therapeutics SA, priority 2003, dated 2009)
Read-outs that look alike come from different tables or passages of the source.

Assays:
HMEC1 = assay: Cell viability assay (MTT), HMEC1; assay type: cell-based, Human; conditions: 10% FBS; for IC50: MTT, 6-day treatment, 1% DMSO
Method: (§1) Table 12: 6-day cell viability assay (MTT) in the presence of 10% Fetal Bovine Serum and 1% DMSO, in HMEC1, HCT116, MDA-MB-231, MCF7 and NIH3T3 cell lines. 3 10^3 to 15 10^3 cells were seeded in 48-well plates in growth medium containing 10% FBS, with or without various concentrations of test compounds. Cell cultures were fed every 3 days with the appropriate media. Cell viability was determined on day 6. Data were analyzed and IC50s were calculated from dose-response curves using GraphPad Prism. Results summarized in the tables are mean±SEM of 1 to 8 independent experiments.
(§2) In order to determine a compound's effect on cell viability, microculture tetrazolium assays (MTT) were performed as described by Carmichael et al. (1996) with modifications. Four human tumoral cell lines, namely HCT116 colon adenocarcinoma, H460 lung carcinoma, MCF-7 and MDA-MB-231 breast carcinoma cell lines, DLD1 colorectal adenocarcinoma, HeLa adenocarcinoma, HepG2 hepatocellular carcinoma. 3 immortalized but non tumorigenic cell lines, namely NIH3T3 mouse fibroblasts (American Type Culture Collection) and primary hepatocytes (Biopredic international), cultured according to their recommendations together with Human Microvasculature Endothelial Cell line HMEC1 (National Center for Infectious Diseases). Briefly, cells were seeded in 48-well plates 24 hours before drug addition. Cells were treated with 0 to 200 μM (11 concentrations) of compound solubilized in DMSO, adjusting the final concentration of DMSO to 1% in the well. 16 hours, and three or six days after treatment, 0.5 mg/ml MTT (Sigma) was added to the medium and cells were incubated for 1-5 hours at 37° C. before solubilization of formazan crystals in 100% DMSO. Absorbance was measured using a spectrophotometer at a wavelength of 550 nm. Data was analyzed using the GraphPad Prism software (GraphPad Software, Inc.), and IC50 (dose leading to 50% cell death) was calculated from the dose-response curves.

NIH 3T3 = assay: Cell viability assay (MTT), NIH 3T3; assay type: cell-based, mouse; conditions: 10% FBS, 1% DMSO
Method: as §1
(§3) Table 15: 16-hour cell viability assay (MTT) in the presence of 10% Fetal Bovine Serum and 1% DMSO, in HCT116, MDA-MB-231, NIH3T3, HepG2 and primary hepatocytes. 5 10^4 to 10 10^4 cells were seeded in 48-well plates in growth medium containing 10% FBS, with or without various concentrations of test compounds. Data were analyzed and IC50s were calculated from dose-reponse curves using GraphPad Prism. Results summarized in the tables are mean±SEM of 1 to 2 independent experiments.
as §2

MDA-MB-231 = assay: Cell viability assay (MTT), MDA-MB-231; assay type: cell-based, human; conditions: 1% DMSO
Method: as §1
(§4) Table 13: 6-day cell viability assay (MTT) in the presence of 0.5% Fetal Bovine Serum and 1% DMSO, in HCT116 and MDA-MB-231 cell lines. 7.5 10^4 to 15 10^4 cells were seeded in 48-well plates in growth medium containing 10% FBS, with or without various concentrations of test compounds. Cell cultures were fed every 3 days with the appropriate media. Cell viability was determined on day 6. Data were analyzed and IC50s were calculated from dose-response curves using GraphPad Prism. Results summarized in the tables are mean±SEM of 1 to 2 independent experiments.
(§5) Table 14: 3-day cell viability assay (MTT) in the presence of 10% Fetal Bovine Serum and 1% DMSO, in DLD1, HCT116, MDA-MB-231, MCF7 and HeLa cells. 7.5 10^3 to 1.5 10^4 cells were seeded in 48-well plates in growth medium containing 10% FBS, with or without various concentrations of test compounds. Data were analyzed and IC50s were calculated from dose-response curves using GraphPad Prism. Results summarized in the tables are mean±SEM of 1 to 7 independent experiments.
as §3, §2

HCT116 = assay: Cell viability assay (MTT), HCT116; assay type: cell-based, human; conditions: 1% DMSO
Method: as §1, §4, §5, §3, §2

[1] = 10% FBS, 6-day treatment, read-out: IC50 μM, MDA-MB-231
[2] = Homo sapiens, HCT-116, 144 h, 10% FBS, 6-day treatment
[3] = Mus musculus, NIH3T3, 144 h, 6-day treatment
[4] = Homo sapiens, MDA-MB-231, 144 h, 10% FBS, 6-day treatment, read-out: IC50 μM, MDA-MB-231

`COc1cc2c(cc1O)CC[C@@H]1[C@@H]2CC[C@]2(C)[C@@H](O)CC[C@@H]12` [2ME, 2-Methoxyestradiol, reference compound] was tested, and the IC50 (HMEC1) was 2.1 µM, the IC50 (NIH 3T3; 6-day treatment) was 2.4 µM and the IC50 (NIH 3T3; 16-hours treatment) was greater than 150 µM. It also gave an IC50 (MDA-MB-231; 0.5% FBS, 6-day treatment, read-out: IC50 (μM), MDA-MB-231) of 15.4 µM, an IC50 (MDA-MB-231; [1]) of 0.3 µM and an IC50 (MDA-MB-231; 10% FBS, 16-hours treatment, read-out: IC50 μM, MDA-MB-231) greater than 100 µM. The IC50 (HCT116; 0.5% FBS, 6-day treatment) was 3.1 µM, the IC50 (HCT116; 10% FBS, 6-day treatment) was 0.8 µM and the IC50 (HCT116; 10% FBS, 16-hours treatment) was 128 µM.
With `CN1CCN(Cc2cc(=O)c(OCCCCCOc3ccnc4cc(C(F)(F)F)ccc34)co2)CC1` [EHT 0079, 5-(5-(7-(Trifluoromethyl)quinolin-4-yloxy)pentyloxy)-2-((4-methylpiperazin-1-yl)methyl)-4H-pyran-4-one] the IC50 (HMEC1; Homo sapiens, HMEC-1, 144 h) was 28.6 µM and the IC50 (HCT116; [2]) was 12.5 µM.
With `O=c1cc(CN2CCOCC2)occ1OCCOCCSc1ccnc2cc(C(F)(F)F)ccc12` [EHT 0371, 5-(2-(2-(7-(Trifluoromethyl)quinolin-4-ylthio)ethoxy)ethoxy)-2-(morpholinomethyl)-4H-pyran-4-one] the IC50 (HMEC1; Homo sapiens, HMEC-1, 144 h) was 88.7 µM.
With `CC(C)(C)C(=O)N1CCN(Cc2cc(=O)c(OCCCCCSc3ccnc4cc(C(F)(F)F)ccc34)co2)CC1` [EHT 0785, 5-(5-(7-(Trifluoromethyl)quinolin-4-ylthio)pentyloxy)-2-((4-(pivaloyl)piperazin-1-yl)methyl)-4H-pyran-4-one] the IC50 (HMEC1; Homo sapiens, HMEC-1, 144 h) was less than 10 µM, the “difference of activity in HMEC1 cells as compared to HCT116 cells” value (HMEC1; MTT 6 days, compounds most active in HCT116) was 5 fold and the IC50 (HMEC1) was 9.6 µM. The IC50 (NIH 3T3; [3]) was 11.6 µM, the IC50 (MDA-MB-231; [1]) was 8.2 µM and the IC50 (MDA-MB-231; [4]) was less than 9 µM.
`O=c1cc(CN2CCOCC2)occ1OCCCCCOc1ccnc2ccc(C(F)(F)F)cc12` [EHT 1426, 5-(5-(6-(Trifluoromethyl)quinolin-4-yloxy)pentyloxy)-2-(morpholinomethyl)-4H-pyran-4-one] was tested, and the IC50 (HCT116; [2]) was 18 µM.
`Cc1cc(OCCCCCOc2coc(COC3CCCCO3)cc2=O)c2cc(F)ccc2n1` (centres unmarked) [EHT 1593, 5-[5-(6-Fluoro-2-methyl-quinolin-4-yloxy)-pentyloxy]-2-(tetrahydro-pyran-2-yloxymethyl)-4H-pyran-4-one] gave an IC50 (HMEC1; Homo sapiens, HMEC-1, 144 h) of 13.2 µM, an IC50 (NIH 3T3; [3]) of 21.5 µM and an IC50 (HCT116; 10% FBS, 6-day treatment) of 2.4 µM. It also gave an IC50 (HCT116; [2]) of less than 4 µM.
Compound `O=c1cc(CN2CCOCC2)occ1OCCCCCOc1ccnc2cc(C(F)(F)F)ccc12` [EHT 3411, 5-(5-(7-(Trifluoromethyl)quinolin-4-yloxy)pentyloxy)-2-(morpholinomethyl)-4H-pyran-4-one] has an IC50 (HMEC1; Homo sapiens, HMEC-1, 144 h) of 62.4 µM and an IC50 (HCT116; [2]) of 14.1 µM.
With `CC(C)(C)NC(=O)N1CCN(Cc2cc(=O)c(OCCCCCSc3ccnc4cc(C(F)(F)F)ccc34)co2)CC1` [EHT 3664, 4-((5-(5-(7-(Trifluoromethyl)quinolin-4-ylthio)pentyloxy)-4-oxo-4H-pyran-2-yl)methyl)-N-tert-butylpiperazine-1-carboxamide] the IC50 (HMEC1; Homo sapiens, HMEC-1, 144 h) was less than 10 µM, the IC50 (HMEC1) was 10 µM and the IC50 (NIH 3T3; [3]) was 9.8 µM. For the same compound, the IC50 (MDA-MB-231; [1]) was 6.3 µM and the IC50 (MDA-MB-231; [4]) was less than 9 µM.
Work on `O=c1cc(CN2CCOCC2)occ1OCCCCCOc1ncnc2ccccc12` [EHT 3726, 5-(5-(Quinazolin-4-yloxy)pentyloxy)-2-(morpholinomethyl)-4H-pyran-4-one] yielded an IC50 (HCT116; [2]) of roughly 200 µM.
For `O=c1cc(COC2CCCCO2)occ1OCCCCCOc1ccnc2cc(C(F)(F)F)ccc12` (centres unmarked) [EHT 3788, 2-(Tetrahydro-pyran-2-yloxymethyl)-5-[5-(7-trifluoromethyl-quinolin-4-yloxy)-pentyloxy]-pyran-4-one], the IC50 (HMEC1; Homo sapiens, HMEC-1, 144 h) was less than 10 µM, the IC50 (HMEC1) was 7.1 µM and the IC50 (NIH 3T3; [3]) was 8.8 µM. It also gave an IC50 (HCT116; 10% FBS, 6-day treatment) of 2.1 µM and an IC50 (HCT116; [2]) of less than 4 µM.
With `CNC(=O)N1CCN(Cc2cc(=O)c(OCCCCCSc3ccnc4cc(C(F)(F)F)ccc34)co2)CC1` [EHT 4495, 4-((5-(5-(7-(Trifluoromethyl)quinolin-4-ylthio)pentyloxy)-4-oxo-4H-pyran-2-yl)methyl)-N-methylpiperazine-1-carboxamide] the IC50 (HCT116; 10% FBS, 6-day treatment) was 2.3 µM and the IC50 (HCT116; [2]) was less than 4 µM.
`O=c1cc(CN2CCOCC2)occ1OCCCCCOc1ccnc2c(C(F)(F)F)cccc12` [EHT 4687, 5-(5-(8-(Trifluoromethyl)quinolin-4-yloxy)pentyloxy)-2-(morpholinomethyl)-4H-pyran-4-one] was tested, and the IC50 (HMEC1; Homo sapiens, HMEC-1, 144 h) was 39.1 µM and the IC50 (HCT116; [2]) was 5.5 µM.
`O=c1cc(CN2CCSCC2)occ1OCCCCCSc1ccnc2cc(C(F)(F)F)ccc12` [EHT 5430, 5-(5-(7-(Trifluoromethyl)quinolin-4-ylthio)pentyloxy)-2-(thiomorpholino-methyl)-4H-pyran-4-one] gave an IC50 (HMEC1; Homo sapiens, HMEC-1, 144 h) of 20.1 µM, an IC50 (HCT116; 10% FBS, 6-day treatment) of 2.1 µM and an IC50 (HCT116; [2]) of less than 4 µM.
In the case of `CCCc1ccc2cccnc2c1OCCCCCOc1coc(COC2CCCCO2)cc1=O` (centres unmarked) [EHT 5810, 5-[5-(7-Propyl-quinolin-8-yloxy)-pentyloxy]-2-(tetrahydro-pyran-2-yloxymethyl)-4H-pyran-4-one], the IC50 (HMEC1; Homo sapiens, HMEC-1, 144 h) was 15.1 µM and the IC50 (HCT116; [2]) was 8.4 µM.
`CN1CCN(Cc2cc(=O)c(OCCCCCOc3ccnc4c(C(F)(F)F)cccc34)co2)CC1` [EHT 5847, 5-(5-(8-(Trifluoromethyl)quinolin-4-yloxy)pentyloxy)-2-((4-methylpiperazin-1-yl)methyl)-4H-pyran-4-one] was tested, and the IC50 (HMEC1; Homo sapiens, HMEC-1, 144 h) was 31.6 µM and the IC50 (HCT116; [2]) was 6.1 µM.
With `O=c1cc(COC2CCCCO2)occ1OCCCCCOc1cccc2ccsc12` (centres unmarked) [EHT 6060, 5-[5-(Benzo[b]thiophen-7-yloxy)-pentyloxy]-2-(tetrahydro-pyran-2-yloxymethyl)-4H-pyran-4-one] the IC50 (HMEC1; Homo sapiens, HMEC-1, 144 h) was 19.1 µM, the IC50 (HCT116; 10% FBS, 6-day treatment) was 2 µM and the IC50 (HCT116; [2]) was less than 4 µM.
`CCOC(=O)c1cnc2cc(C(F)(F)F)ccc2c1OCCCCCOc1coc(CN2CCN(C)CC2)cc1=O` [EHT 8791, 4-[5-(6-(4-Methyl-piperazin-1-ylmethyl)-4-oxo-4H-pyran-3-yloxy)-pentyloxy]-7-trifluoromethyl-quinoline-3-carboxylic acid ethyl ester] gave an IC50 (HMEC1; Homo sapiens, HMEC-1, 144 h) of roughly 200 µM and an IC50 (HCT116; [2]) of roughly 200 µM.
For `O=c1cc(COC2CCCCO2)occ1OCCCCCCCSc1ccnc2cc(C(F)(F)F)ccc12` (centres unmarked) [EHT 8883, 5-(7-(7-(Trifluoromethyl)quinolin-4-ylthio)heptyloxy)-2-((tetrahydro-2H-pyran-2-yloxy)methyl)-4H-pyran-4-one], the IC50 (HMEC1; Homo sapiens, HMEC-1, 144 h) was less than 10 µM and the IC50 (HMEC1) was 8 µM.
With `CC(C)(C)OC(=O)N1CCN(Cc2cc(=O)c(OCCCCCSc3ccnc4cc(C(F)(F)F)ccc34)co2)CC1` [EHT 9358, tert-Butyl 4-((5-(5-(7-(trifluoromethyl)quinolin-4-ylthio)pentyloxy)-4-oxo-4H-pyran-2-yl)methyl)piperazine-1-carboxylate] the IC50 (HMEC1; Homo sapiens, HMEC-1, 144 h) was 18.4 µM, the IC50 (NIH 3T3; [3]) was 7.7 µM and the IC50 (HCT116; Homo sapiens, HCT-116, 144 h, 0.5% FBS, 6-day treatment) was 1 µM.
For `CC(=O)O[C@H]1C(=O)[C@@]2(C)[C@H]([C@H](OC(=O)c3ccccc3)[C@]3(O)C[C@H](OC(=O)[C@H](O)[C@@H](NC(=O)c4ccccc4)c4ccccc4)C(C)=C1C3(C)C)[C@]1(OC(C)=O)CO[C@@H]1C[C@@H]2O` [Taxol, Paclitaxel, reference compound], the IC50 (HMEC1; Homo sapiens, HMEC-1, 144 h) was 0.0029 µM, the IC50 (NIH 3T3; [3]) was roughly 0.05 µM and the IC50 (MDA-MB-231; Homo sapiens, MDA-MB-231, 72 h, 10% FBS, 3-day treatment, read-out: IC50, MDA-MB-231 (row labelled Taxol (nM))) was 4.25e-06 µM. For the same compound, the IC50 (MDA-MB-231; [4]) was 0.0036 µM and the IC50 (HCT116; [2]) was 0.0055 µM.
